Like-named read-outs stand apart in the source and are kept apart here.
Columns and labels:
[1] = system: rat model of diabetic retinopathy; test: Rat model of diabetic retinopathy (STZ); assay type: in vivo, Wistar rats; conditions: for retinal leukocyte stasis, Leukocyte count: Concanavalin A/FITC, 14 days after intravitreal injection, compounds 0.25%, dexamethasone 0.1%; for number of leukocyte stasis in the retina (fluorescent staining, FIG. 8; in words) / retinal vascular penetration in rats (fluorescent staining, FIG. 6; in words): intraocular injection, versus model group
Method: 3.1 Laboratory animals: SPF-grade male Wistar rats, weighed 180-220 g.
3.3 Animal modeling and grouping: After one week of adaptive feeding, 134 male Wistar rats (weighed 220-260 g) were administered 65 mg/kg of STZ by one-time intraperitoneal injection to prepare a rat model of type I diabetic. The rats were fasting but water was allowable overnight for 15 h. The formulated STZ solution was intraperitoneally injected according to body weight. After 1 h, the diet was resumed and blood glucose was measured at 72 h. The successfully modeled diabetic rats (120 rats) were selected for continued feeding, and randomly divided into the following 6 groups according to blood glucose (20 rats per group), plus a group of normal rats with no STZ injected as a negative control group.
3.4 Administration: The rats continued to be fed until blood glucose was measured once before administration. After blood glucose reached the standard, drugs were intravitreally injected, and indexs were subsequently tested after 14 days. Blood glucose was measured once before sampling.
3.5 Evans blue staining method (7 groups, 6 rats per group): Evans blue was intravenously injected. 2 hours later, normal saline was perfused into the left ventricle. The retina was taken to compare between the stained area and the unstained area to detect retinal vascular permeability.
3.6 Retinal leukocyte stasis detection method (7 groups, 6 rats per group): PBS was perfused into the left ventricle for 1 min to remove red blood cells and other substances. Concanavalin A (FITC (Sigma, C7642) was perfused (20 μg/ml in PBS, 5 mg/kg) to mark adherent leukocytes. 4% PFA was perfused for 4 min for fixation. 1% Albumin (Sigma, A6414) (in PBS) was perfused for 1 min, and then PBS was perfused for 2 min. The retina was taken for retinal wholemount. Thereafter, the stasis of leukocytes on the vascular endothelium was observed under a fluorescence microscope. […]

[2] = Pharmacokinetics in vivo in rats; design: species or system SD rats; conditions: for clearance / half-life / Vd / AUC / Cmax / bioavailability: SD, rat, plasma; for Vd: read-out: Apparent volume of distribution (Vss); for AUC: read-out: Area under the curve of plasma concentration-time (AUC); for Cmax: read-out: Peak concentration (Cmax)
Method: 1. […] At different time points after administration, blood samples were collected into EDTA blood sample collection tubes. Plasma was separated by centrifugation and stored at −20° C. for the analysis afterwards.
2. Handling of blood samples and LC-MS/MS analysis: the standard curve and formulation and processing of quality control sample: The compound stock solution was diluted with 50% methanol in water to form a standard curve working solution containing each compound at a concentration of 40-20000 ng/mL and a quality control working solution of 120, 1200, and 16000 ng/mL. 47.5 μL of blank rat plasma were respectively taken, and added into 2.50 μL of standard curve working solution or the quality control working solution, to formulate the standard curve samples containing the compound at a concentration of 2.00-1000.00 ng/mL and the quality control samples having a concentration of […] and 800.00 ng/mL. 400 μL of acetonitrile (containing 5 ng/mL of verapamil as an internal standard) was added respectively. The samples were vortexed for 3 min, centrifuged at 20000 rcf, 4° C. for 15 min. The supernatant was taken for LC-MS/MS analysis.
3. Treatment of the compound blood samples: 5 μL of plasma sample was taken, to which 95 μL of blank rat plasma was added, and 800 μL of acetonitrile (containing 5 ng/mL of verapamil as an internal standard) was added. The samples were vortexed for 3 min, centrifuged at 15000 rcf, 4° C. for 10 min. The supernatant was taken for LC-MS/MS analysis (chromatographic column: ACQUITY UPLC® BEH C18 2.1×50 mm 1.7 μm; mobile phase A: 0.1% formic acid in water; mobile phase B: acetonitrile; flow rate: […]).
4. Analysis of the results: pharmacokinetic parameters were fit and calculated by WinNonlin software using statistical […] method, mainly including kinetic parameters Tmax, t1/2, Cmax, AUC0-t, AUC0∞, Cl, Vd, F, etc. The pharmacokinetic data were calculated and processed using Microsoft Excel, such as mean and standard deviation.

[3] = Ocular irritation after eye drops: ophthalmic observation and free protoporphyrin (FEP) in eye rinsing solution (ELISA); assay type: in vivo, SD rats; conditions: 2% eye drops (10 μl) twice a day for 7 days
Method: 2.1 Experimental aminals: SPF grade male SD rats, weighed 180-200 g, were used and adaptively fed for one week.
2.3 Experimental animal grouping: the animals were randomly divided into 3 groups (6 rats per group) of a negative control group (normal saline), a Compound 71 group and a Compound 8 group.
2.4 Administration method and sampling: 2% Compound (10 μl) dissolved in normal saline (after filtration) was dropped into the surface of each rat's eye with a pipette for 10 s. The eye drop was applied twice a day for a total of 7 days. Samples were taken at 1 and 16 hours after the second administration on Day 7 of administration to determine the ocular distribution concentration of the drug.
[…] The rinsing solution was frozen at −80° C. for subsequent detection of irritant inflammatory response on the surface of the bulbus oculi.
2.7.2 Result of measurement of secretion of porphyrin: it was further determined whether inflammation or bleeding in the eyes occurred after eye drops by ELISA essay of free protoporphyrin (FEP) in erythrocytes. As indicated by the results, the level of FEP in the sample of eye rinsing solution was at a low concentration level for the rats in both the test drug group and the negative control group. There was no significant difference (P>0.05).

[4] = 3 mg/kg oral administration in rats (Table 2A)
[5] = 3 mg/kg intravenous injection in rats

| Peak time [2, 4] [h] | clearance [2, 5] [mL/min/kg] | half-life [2, 5] [h] | Vd [2, 5] [L/kg] | AUC [2, 5] [ng·h/mL] | Cmax [2, 5] [ng/mL] | bioavailability [2, 4] [%] | half-life [2, 4] [h] | AUC [2, 4] [ng·h/mL] | Cmax [2, 4] [ng/mL] | Compound | retinal leukocyte stasis, Leukocyte count [1] | number of leukocyte stasis in the retina (fluorescent staining, FIG. 8; in words) [1] | retinal vascular penetration in rats (fluorescent staining, FIG. 6; in words) [1] | FEP expression level in eye rinsing solution, Left eye ([3]; 1 h) [ng/mL] | FEP expression level in eye rinsing solution, Right eye ([3]; 1 h) [ng/mL] | FEP expression level in eye rinsing solution, Left eye ([3]; 16 h) [ng/mL] | FEP expression level in eye rinsing solution, Right eye ([3]; 16 h) [ng/mL] |
| --- | --- | --- | --- | --- | --- | --- | --- | --- | --- | --- | --- | --- | --- | --- | --- | --- | --- |
| 0.78 | 9.87 | 0.56 | 0.328 | 5090 | 16400 | 6.1 | 3.37 | 3130 | 1390 | CCOc1ccc(-c2c(F)cc(NC(=O)N3CCC(C(C)(C)C)CC3)cc2-c2nn[nH]n2)cn1 [Compound 8, 4-(tert-butyl)-N-(4-(6-ethoxypyrid-3-yl)-3-fluoro-5-(2H-tetrazol-5-yl)phenyl)piperidine-1-carboxamide] | 5.32 ± 1.38 | significantly reduced | significantly reduced | 1.53 ± 0.03 | 1.45 ± 0.02 | 1.57 ± 0.08 | 1.57 ± 0.06 |
| 2.72 | 2.42 | 0.93 | 0.156 | 20700 | 37500 | 3.6 | 3.63 | 7480 | 914 | CCOc1ccc(-c2ccc(NC(=O)N[C@H]3CC[C@H](C)CC3)cc2-c2nn[nH]n2)cn1 [Compound 71, 1-(4-(6-ethoxypyrid-3-yl)-3-(2H-tetrazol-5-yl)phenyl)-3-((trans)-4-methylcyclohexyl)urea] | 5.22 ± 1.13 | significantly reduced | significantly reduced | 1.50 ± 0.02 | 1.54 ± 0.08 | 1.61 ± 0.06 | 1.55 ± 0.09 |

Source: US20250353835A1, “N-TETRAZOLYL ARYL UREA-BASED DERIVATIVES, PREPARATION METHOD THEREFOR, AND USE THEREOF” (Hangzhou Yirui Pharmaceutical Technology Co., Ltd, priority 2022, published 2025)
